Data: patent US12617752B2, “Rapidly metabolized lipid compound” (Beijing Jitai Life Sciences Ltd, priority 2023, dated 2026)

What was measured:
[1] = Clearance rate of ionizable lipids in vivo (liver content by LC-MS/MS); details: C57 WT female mice, tail vein, 100 μL unloaded LNP (0.1 mg/mL)
Description: The 6-8 weeks old C57 WT female mice (n=3) were injected by tail vein administration of 100 μL of unloaded LNP (0.1 mg/mL) formed from the ionizable lipid, cholesterol, DSPC, and DMG-PEG 2000 at a ratio of 50:38.5:10:1.5. The experimental animals were executed by removing the cervical vertebrae and dissected for the liver at 24 h and 72 h after administration, respectively, while the same batch of non-dosed experimental animal livers were used as a blank control group. Water was added to the liver sample for homogenization, and the protein was precipitated. The content of the ionizable lipid in the sample was quantitatively analyzed using LC-MS/MS in comparison to a calibration standard prepared from matched blank liver tissues.

[2] = system: C57BL/6 mice; assay: In vivo delivery of luciferase mRNA lipid nanoparticles in mice (bioluminescence imaging); details: intravenous, single dose 0.5 mg/kg luciferase mRNA
How it was run: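 Female C57BL/6 mice, 6-8 weeks old, received luciferase mRNA lipid nanoparticles as a single intravenous dose of 0.5 mg/kg mRNA. At 6 h, D-luciferin given intraperitoneally; 10 min later, mice were imaged under isoflurane anaesthesia. Values are group mean fluorescence intensity and total photon count.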

[3] = Particle size and PDI of lipid nanoparticles by dynamic light scattering; format: physicochemical; details: lipid nanoparticles with luciferase mRNA; ionizable lipid/cholesterol/DSPC/DMG-PEG2000 50/38.5/10/1.5 mol%
How it was run: (§1)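 LNPs of ionizable lipid/cholesterol/phospholipid/PEG-lipid (50/38.5/10/1.5 mol%, N/P 6) were formed by microfluidic mixing with mRNA in pH 4.5 acetate, then buffer-exchanged by ultrafiltration. Size and PDI were measured by DLS. Encapsulation came from RiboGreen fluorescence (485/528 nm) in TE pH 7.5, with and without 0.5% Triton at 37 °C for 30 min.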

[4] = Encapsulation efficiency of lipid nanoparticles (Quant-it RiboGreen RNA Assay); format: physicochemical; details: lipid nanoparticles with luciferase mRNA
How it was run: as §1

[5] = system: HEK293T cells; assay: Cytotoxicity testing with CCK-8 reagent; format: cell-based, human; details: CCK-8, 24 h, relative to PBS negative control
Description: (§2) The delivery effect and safety of nanoparticles encapsulated with luciferase mRNA were evaluated at the cellular level in vitro. The cells used in the assay were human embryonic kidney cells 293 (HEK293T cells) cultured in DMEM (Dulbecco's Modified Eagle Medium) (purchased from Thermo Fisher) containing 10% fetal bovine serum and 5% penicillin-streptomycin double antibiotics at a indoor temperature of 37° C. and a CO2 concentration of 5%. The cells were uniformly dispersed and spread in 48-well plates, and incubated in the incubator for 24 h. Then a solution of the lipid nanoparticles encapsulated with luciferase mRNA were added. After 24 h, the cells were lysed, and the intracellular expression intensity and relative light units (RLU) of luciferase in each type of lipid nanoparticles were measured with a luciferase detection reagent (purchased from Promega). The higher the intensity of expression, the higher the delivery efficiency of the lipid material at the cellular level. […] The absorbance values were read on a multifunctional microplate reader at an absorbance band of 450 nm. The ratio of the absorbance value of the nanoparticle-treated cells to that of the negative control was used as a characterization parameter for cell viability.

[6] = system: HEK293T cells; assay: In vitro delivery efficiency of luciferase mRNA nanoparticles (luciferase expression); format: cell-based, human; details: 24 h
Description: as §2

Structure (SMILES)	Percentage of cationic lipids in the liver in the total dose, 24 h after administration (%) [1] [%]	Percentage of cationic lipids in the liver in the total dose, 72 h after administration (%) [1] [%]	Particle size (nm) [3] [nm]	Particle-size distribution (PDI) [3]	Encapsulation efficiency (%) [4] [%]	Total photon count in vivo at 6 hours after administration (Total Flux) [2]	Cell viability (%) [5] [%]	Luciferase luminescence of cell lysate [6] [RLU]
CCCCCCCCCOC(=O)CCCCCCCN(CCCO)CCCCCCC(C)(C)C(=O)OC(CCCCCCCC)CCCCCCCC [4a]	<1	0	103.7	0.005	92.87	3.25E+10	–	–
CCCCCCCCCC(=O)OCC(C)(C)CCCCCN(CCO)CCCCCCCC(=O)OCCC(CCCCCC)CCCCCC [10b]	5 ± 3.1	<1	114.72	0.052	72.72	3.15E+10	–	–
CCCCCCCCCC(=O)OCC(C)(C)CCCCCN(CCO)CCCCCCCC(=O)OCCCCC(CCCC)CCCC [12b]	<1	0	104.60	0.031	91.04	1.19E+10	–	–
CCCCCCCCCOC(=O)CCCCCCCN(CCO)CCCCC(C)(C)CCC(=O)OC(CCCCCCCC)CCCCCCCC [20a]	–	–	102.13	0.032	87.83	1.18E+11	105.11	6.55E+06
CCCCCCCCCCC(=O)OCC(C)(C)CCCCCN(CCCCCCCC(=O)OC(CCCCCCCCC)CCCCCCCCC)C(=O)SCCCN(C)C [39b]	<1	<1	102.67	0.07	93.58	7.16E+10	–	–
CCCCC#CCCCOC(=O)CCCCCCCN(CCO)CCCCCCC(C)(C)C(=O)OC(CCCCCCCC)CCCCCCCC [56a]	<1	<1	86.37	0.09	82.84	3.23E+10	–	–
CCCCC/C=C\C/C=C\CCCCCCCCC(CCCCCCCC/C=C\C/C=C\CCCCC)OC(=O)CCCN(C)C [MC3, DLin-MC3-DMA, reference compound]	–	–	96.83	0.04	95.62	8.04E+09	97.84	2.95E+06

Second part, led by results:

Percentage of cationic lipids in the liver in the total dose, 24 h after administration (%) [1] [%]	Percentage of cationic lipids in the liver in the total dose, 72 h after administration (%) [1] [%]	Particle size (nm) [3] [nm]	Particle-size distribution (PDI) [3]	Encapsulation efficiency (%) [4] [%]	Structure (SMILES)	Total photon count in vivo at 6 hours after administration (Total Flux) [2]	Cell viability (%) [5] [%]	Luciferase luminescence of cell lysate [6] [RLU]
12 ± 3.8	<1	102.32	0.015	74.43	CCCCCCCCCC(=O)OCC(C)(C)CCCCCN(CCCCO)CCCCCCCC(=O)OC(CCCCCCCC)CCCCCCCC [3b]	1.41E+11	–	–
8 ± 2.7	<1	99.02	0.018	89.27	CCCCCCCCCC(=O)OCC(C)(C)CCCCCN(CCO)CCCCCCCC(=O)OCC(CCCCCCC)CCCCCCC [13b]	1.81E+11	–	–
2	<1	99.44	0.050	93.03	CCCCCCCCCC(=O)OCC1(CCCCCN(CCO)CCCCCCCC(=O)OCC(CCCCCCC)CCCCCCC)CC1 [22b]	8.78E+10	–	–
8	<1	113.77	0.14	94.58	CCCCCCCCCCOC(=O)OCCCCCCN(CCO)CCCCCC(C)(C)COC(=O)CCC(CCCCCC)CCCCCC [26b]	6.53E+10	–	–
4	<2	107.40	0.12	86.94	CCCCCCCCCOC(=O)OCCCCCCN(CCO)CCCCCCC(C)(C)C(=O)OC(CCCCCCCC)CCCCCCCC [30a]	8.32E+10	–	–
